Results on 29 molecules are retold here after patent US10195189B2, “2-phenethenyltetrahydro isoquinolines useful as anti-HIV compounds” (priority 2014, dated 2019).

The assay has as its system HIV-1 NL4-3 viral clone expressing Renilla luciferase. Kind of assay: microbe, parasite or virus in culture. The assay is classed as cell-based. Conditions: Human immunodeficiency virus 1, NL43, MT2, 96 h. As to the method:
Protocol for MT-2 Spread Assay
The present assay was used to screen candidate antiviral compounds by quantification of virus spread and production over several rounds of infection in vitro. MT-2, a HIV-1 permissive human T-cell line, was seeded in microtiter plates and was simultaneously treated with serially diluted compound and inoculated with a HIV-1 NL4-3 viral clone engineered to express Renilla luciferase in place of Net Following treatment, the culture was incubated for 96 hours. After the incubation, media was collected and used to estimate relative infectivity on the indicator cell line, TZM-bl. Additionally, viral spread was quantified by measuring luciferase activity via a commercially available luciferase substrate. In parallel, MT-2 cells were seeded and inoculated with mock virus in the presence of serially diluted compound. Compound toxicity was quantified 96 hours after treatment with AlamarBlue.
MT-2 (NIH Aids reagent program 237) cells were grown and maintained in an incubator at 37° C. with 5% CO2 using a basal medium of RPMI-1640 supplemented with 10% FBS. Cells were seeded in 100 μl at 2×10^4 cells/well in white walled 96-well microtiter plates. Candidate compounds were 3-fold serially diluted in the appropriate solvent. Solvent without compound was used as a no drug reference. Cells were inoculated at a multiplicity of 0.027 with an HIV-1 NL4-3 virus stock engineered to express Renilla luciferase in place of Net Diluted virus stock was first added to serially diluted compound. Compound and virus were delivered to cells in an equal volume (100 μl) and treated cultures were returned to the incubator for 96 hours. In parallel, plates for cytotoxicity estimates were prepared in the same way except cells were plated in clear walled 96-well microtiter plates and were mock infected.
At 96 hours post infection, 100 μl virus containing culture supernatant was collected from the treated and infected cultures and serially diluted in DMEM supplemented with 10% FBS, 1% sodium pyruvate, and 20 μg/ml DEAE dextran. One day prior, TZM-bl (ATCC PTA-5659) were cultured in basal medium of DMEM supplemented with 10% FBS and 1% sodium pyruvate and seeded at 7.5×10^3 cells/well in black walled 96-well microtiter plates. Diluted virus containing culture supernatant was transferred to TZM-bl cultures and incubated for 48 hours at 37° C. with 5% CO2. Infected TZM-bl cultures were fixed for 5 minutes with a 1% formaldehyde/0.2% gluteraldehyde/PBS solution then washed three times with PBS. Fixed cultures were incubated at 37° C. for 25 minutes with a 200 μg/ml MUG (4-Methylumbelliferyl β-D-[…])/DMEM solution. The reaction was stopped with an equal volume of 1M sodium carbonate and read at 360, 449 nm on fluorescence plate reader (Biotek).
At 96 hours post infection, 100 μl of culture supernatant was removed from the treated and infected cultures and EnduRen live cell substrate (Promega) was added at a final concentration 1.3 μg/ml. Cells were incubated for 1.5 hours at 37° C. with 5% CO2 then read on a luminescence plate reader (Biotek).
For all assays, data was imported into Accelrys Assay Explorer 3.3. In Assay Explorer, % inhibition (antiviral or cytotoxicity) was calculated using the solvent control as a reference by the following equation: 1−(SignalCompound/SignalReference). The % Inhibition and compound concentration data was fitted using the following 4-parameter logistic model (Assay Explorer model 42):
[formula] where X is compound concentration, Y is % inhibition, D is the maximum % Inhibition (constrained to 100%), C is IC50 value or inflection point, B is the hill slope, and A is the minimum % inhibition (constrained to 0%). The IC50 value is reported as the EC50 or CC50 depending on the assay endpoint. EC50 represents the effective concentration at which virus replication is inhibited by 50 percent. CC50 represents the concentration that results in the death of 50 percent of the host cells. […]

Regarding `COc1cc(C)c(/C=C/C2NCCc3cc(OCc4ccccc4)c(OC)cc32)cc1OCc1ccccc1` (centres unmarked) [AF, 6-benzyloxy-1-[(E)-2-(5-benzyloxy-4-methoxy-2-methyl-phenyl)vinyl]-7-methoxy-1,2,3,4-tetrahydroisoquinoline], the EC50 – broadly, the concentration at which the effect is half-maximal – is 83 nM. `COc1cc2c(cc1OCc1ccccc1)CCNC2/C=C/c1cc(OC)c(OCc2ccccc2)c(OC)c1` (centres unmarked) [AP, 6-Benzyloxy-1-[(E)-2-(4-benzyloxy-3,5-dimethoxy-phenyl)vinyl]-7-methoxy-1,2,3,4-tetrahydroisoquinoline] gave a concentration giving a half-maximal response (EC50) of 970 nM.

For the molecule `COc1cc(OC)c(OC)cc1/C=C/C1NCCc2cc(OCc3ccccc3)c(OC)cc21` (centres unmarked) [AQ, 6-Benzyloxy-7-methoxy-1-[(E)-2-(2,4,5-trimethoxyphenyl)vinyl]-1,2,3,4-tetrahydroisoquinoline], the EC50 came out at 15.1 nM. The same measure for `COc1ccc(/C=C/C2NCCc3cc(OCc4ccccc4)c(OC)cc32)cc1Br` (centres unmarked) [AR, 6-Benzyloxy-1-[(E)-2-(3-bromo-4-methoxy-phenyl)vinyl]-7-methoxy-1,2,3,4-tetrahydroisoquinoline]: 800 nM; for `COc1cc(/C=C/C2NCCc3cc(OCc4ccccc4)c(OC)cc32)cc(OC)c1` (centres unmarked) [AT, 6-Benzyloxy-1-[(E)-2-(3,5-dimethoxyphenyl)vinyl]-7-methoxy-1,2,3,4-tetrahydroisoquinoline]: 770 nM; for `COc1cc(/C=C/C2NCCc3cc(OCc4ccccc4)c(OC)cc32)ccn1` (centres unmarked) [AU, 6-benzyloxy-7-methoxy-1-[(E)-2-(2-methoxy-4-pyridyl)vinyl]-1,2,3,4-tetrahydroisoquinoline]: 1650 nM.

The molecule `COc1ccc(/C=C/C2NCCc3cc(OCc4ccccc4)c(OC)cc32)c(OC)c1` (centres unmarked) [AV, 6-Benzyloxy-1-[(E)-2-(2,4-dimethoxyphenyl)vinyl]-7-methoxy-1,2,3,4-tetrahydroisoquinoline] returned an EC50 of 140 nM. The same measure for `COc1cc2c(cc1OCc1ccccc1)CCNC2/C=C/c1ccncc1` (centres unmarked) [AW, 6-Benzyloxy-7-methoxy-1-[(E)-2-(4-pyridyl)vinyl]-1,2,3,4-tetrahydroisoquinoline]: 3280 nM; for `COc1ccc(/C=C/C2NCCc3cc(OCc4ccccc4)c(OC)cc32)cn1` (centres unmarked) [AX, 6-Benzyloxy-7-methoxy-1-[(E)-2-(6-methoxy-3-pyridyl)vinyl]-1,2,3,4-tetrahydroisoquinoline]: 3280 nM; for `COc1cc2c(cc1OCc1ccccc1)CCNC2c1cc(OCc2ccccc2)c(OC)cc1C` (centres unmarked) [AY, 6-(Benzyloxy)-1-(5-(benzyloxy)-4-methoxy-2-methylphenyl)-7-methoxy-1,2,3,4-tetrahydroisoquinoline]: 4880 nM. For `COc1cc2c(cc1OCc1ccccc1)CCNC2c1ccccc1CNC(=O)OC(C)(C)C` (centres unmarked) [AZ, tert-Butyl N-[[2-(6-benzyloxy-7-methoxy-1,2,3,4-tetrahydroisoquinolin-1-yl)phenyl]methyl]carbamate] the value was 2770 nM. Molecule `COc1cc(C)c(/C=C/C2NCCc3cc(OCc4ccccc4)c(OC)cc32)c(C)c1` (centres unmarked) [BA, 6-Benzyloxy-7-methoxy-1-[(E)-2-(4-methoxy-2,6-dimethyl-phenyl)vinyl]-1,2,3,4-tetrahydroisoquinoline] showed an EC50 of 497 nM.

`COc1cc2c(cc1OCc1ccccc1)CCNC2/C=C/c1cc2c(cc1C)OCO2` (centres unmarked) [BB, 6-Benzyloxy-7-methoxy-1-[(E)-2-(6-methyl-1,3-benzodioxol-5-yl)vinyl]-1,2,3,4-tetrahydroisoquinoline] returned a 50% effective concentration (EC50) of 54.4 nM.

As for `COc1cc2c(cc1OCc1ccccc1)CCNC2/C=C/c1cc2c(cc1C)OCCO2` (centres unmarked) [BC, 6-Benzyloxy-7-methoxy-1-[(E)-2-(7-methyl-2,3-dihydro-1,4-benzodioxin-6-yl)vinyl]-1,2,3,4-tetrahydroisoquinoline], the EC50 amounted to 27.1 nM.

For the molecule `CCCCOc1ccc(/C=C/C2NCCc3cc(OCc4ccccc4)c(OC)cc32)cc1OC` (centres unmarked) [BD, 6-Benzyloxy-1-[(E)-2-(4-butoxy-3-methoxy-phenyl)vinyl]-7-methoxy-1,2,3,4-tetrahydroisoquinoline], the midpoint of the response, the EC50, lay at 408 nM. For `CCCCOc1cc(/C=C/C2NCCc3cc(OCc4ccccc4)c(OC)cc32)ccc1OC` (centres unmarked) [BE, 6-Benzyloxy-1-[(E)-2-(3-butoxy-4-methoxy-phenyl)vinyl]-7-methoxy-1,2,3,4-tetrahydroisoquinoline] the value was 99.8 nM; for `COc1ccc(/C=C/C2NCCc3cc(OCc4ccccc4)c(OC)cc32)cc1F` (centres unmarked) [BF], 1020 nM.

For `COc1cc2c(cc1OCc1ccccc1)CCNC2/C=C/c1ccc(N(C)C)cc1C` (centres unmarked) [BG, 4-[(E)-2-(6-benzyloxy-7-methoxy-1,2,3,4-tetrahydroisoquinolin-1-yl)vinyl]-N,N,3-trimethyl-aniline], it took 1650 nM to reach a half-maximal effect (EC50). The same measure for `COc1cc2c(cc1OCc1ccccc1)CCNC2/C=C/c1cc(OC(F)(F)F)ccc1C` (centres unmarked) [BH, 6-Benzyloxy-7-methoxy-1-[(E)-2-[2-methyl-5-(trifluoromethoxy)phenyl]vinyl]-1,2,3,4-tetrahydroisoquinoline]: 1930 nM; for `COc1cc2c(cc1OCc1ccccc1)CCNC2/C=C/c1ccccc1` (centres unmarked) [BI, 6-Benzyloxy-7-methoxy-1-[(E)-styryl]-1,2,3,4-tetrahydroisoquinoline]: 2200 nM. In turn, `COc1ccc(/C=C/C2NCCc3cc(OCc4ccccc4)c(OC)cc32)cc1` (centres unmarked) [BJ, 6-Benzyloxy-7-methoxy-1-[(E)-2-(4-methoxyphenyl)vinyl]-1,2,3,4-tetrahydroisoquinoline] gave an EC50 of 477 nM. This EC50 lies about 4.6-fold lower than the previous one. The molecule `COc1cc2c(cc1OCc1ccccc1)CCNC2/C=C/c1cccc(OCc2ccccc2)c1` (centres unmarked) [BK, 6-Benzyloxy-1-[(E)-2-(3-benzyloxyphenyl)vinyl]-7-methoxy-1,2,3,4-tetrahydroisoquinoline] came in with an EC50 of 260 nM. This EC50 lies about 1.8-fold lower than the previous one.

Molecule `CCCCOc1cc(/C=C/C2NCCc3cc(OCc4ccccc4)c(OC)cc32)c(C)cc1OC` (centres unmarked) [BL, 6-Benzyloxy-1-[(E)-2-(5-butoxy-4-methoxy-2-methyl-phenyl)vinyl]-7-methoxy-1,2,3,4-tetrahydroisoquinoline] registered an EC50 of 52 nM. The same measure for `COc1cc2c(cc1OCc1ccccc1)CCNC2/C=C/c1ccc2c(c1)CCO2` (centres unmarked) [BM, 6-Benzyloxy-1-[(E)-2-(2,3-dihydrobenzofuran-5-yl)vinyl]-7-methoxy-1,2,3,4-tetrahydroisoquinoline]: 146 nM. For `COc1cc2c(cc1OCc1ccccc1)CCNC2/C=C/c1ccc2occc2c1` (centres unmarked) [BN, 1-[(E)-2-(benzofuran-5-yl)vinyl]-6-benzyloxy-7-methoxy-1,2,3,4-tetrahydroisoquinoline] the value was 840 nM. For `COc1cc(C)c(/C=C/C2NCCc3cc(OCc4ccccc4)c(OC)cc32)cc1OCCCC(=O)O` (centres unmarked) [BO, 4-[5-[(E)-2-(B-benzyloxy-7-methoxy-1,2,3,4-tetrahydroisoquinolin-1-yl)vinyl]-2-methoxy-4-methyl-phenoxy]butanoic acid] the value was 234 nM.

In turn, `COc1cc(F)c(/C=C/C2NCCc3cc(OCc4ccccc4)c(OC)cc32)cc1OC` (centres unmarked) [BP, 6-Benzyloxy-1-[(E)-2-(2-fluoro-4,5-dimethoxy-phenyl)vinyl]-7-methoxy-1,2,3,4-tetrahydroisoquinoline] showed an EC50 of 2030 nM. This EC50 lies about 8.7-fold higher than the previous one. In turn, `COc1ccc(/C=C/C2NCCc3cc(OCc4ccccc4)c(OC)cc32)cc1OC` (centres unmarked) [BQ, 6-Benzyloxy-1-[(E)-2-(3,4-dimethoxyphenyl)vinyl]-7-methoxy-1,2,3,4-tetrahydroisoquinoline] gave an EC50 of 198 nM.

The molecule `COc1ccc(/C=C/C2NCCc3cc(OCc4ccccc4)c(OC)cc32)c(F)c1` (centres unmarked) [BR, 6-Benzyloxy-1-[(E)-2-(2-fluoro-4-methoxy-phenyl)vinyl]-7-methoxy-1,2,3,4-tetrahydroisoquinoline] registered a half-maximal effective concentration (EC50) of 1140 nM.
